Legend:
[1] = target: T1, pro-FSAP purified from human plasma (Homo sapiens, UniProt Q14520); assay: Pro-FSAP activation assay, purified pro-FSAP, chromogenic substrate S-2288; type: biochemical
T1 construct: Pro-FSAP was isolated from human plasma as described before; from tissue; host or cells: human plasma
Experimental: Figure 1 Isolation of pro-FSAP binding peptides and their activity: (A) strategy to isolate high-affinity phages from the NNKC9 and NNK11 libraries that bind to pro-FSAP. To select for strong binders, an excess of free pro-FSAP protein was used for competitive elution of low-affinity binders. High-affinity binders retained on the beads were analyzed further. The sequences of major positive clones identified through an ELISA-based binding assay from the NNKC9 and NNK11 libraries are shown. (B) NNK11/189 and scrambled controls (0–50 μM) and histones (0–50 μg/mL) were added to purified pro-FSAP (1.0 μg/mL) and the turnover of the chromogenic substrate S-2288 (200 μM) was measured. (C) NNKC9/41 was compared to a peptide that was synthetically monocyclized (Cys–Cys cyclic), a peptide with Ser residues instead of Cys at both ends (Ser–Ser linear), a peptide with Ser residues at the end cyclized head to tail (Ser–Ser cyclic), and a scrambled peptide in a pro-FSAP activation assay. (D) Hirudin plasma (1:12 dilution) was incubated with histones (25 μg/mL), NNKC9/41, or Ser–Ser linear control (each, 25 μM), the fluorogenic substrate turnover (Ac–Ala–Lys–Nle–Arg–AMC) was monitored in duplicate wells, and results from a single well are shown. In panels (B) and (C), results are shown as mean + range (duplicate wells). Results were replicated with five different batches of NNKC9/41 (panels (B) and (C)).
Pro-FSAP was isolated from human plasma as described before.[14] The content of the zymogen form varied from 50% to 90% due to autoactivation during the purification process. Histones, isolated from the calf thymus, were obtained from Sigma-Aldrich (Oslo, Norway). FSAP activity assays were performed as described previously.[51] In brief, microtiter wells were blocked with TBS (25 mM Tris–HCl, pH 7.5, and 150 mM NaCl) containing 3% (w/v) BSA for 1 h and washed with TBS-T. The standard assay consisted of TBS-T with 0.3% (w/v) BSA and CaCl2 (2 mM) 1 μg/mL (15 nM) plasma purified pro-FSAP and 250 μM chromogenic substrate S-2288 (D-Ile-L-Pro-L-Arg-p-nitroaniline dihydrochloride) (Haemochrome Diagnostica, Essen, Germany) and was followed at 37 °C at 405 nm in a microplate reader Synergy HI plate reader (BioTek Instruments, Winooski). In some experiments, a fluorescent substrate of FSAP[35] was used.

[2] = target: T2, pro-FSAP in human plasma (Homo sapiens, UniProt Q14520); assay: Activation of endogenous pro-FSAP in plasma, fluorogenic substrate turnover; type: biochemical
T2 construct: from tissue; host or cells: human hirudin or citrate plasma from healthy donors, diluted 1:12
Experimental: Human citrate plasma (0.38% w/v) or hirudin plasma (25 μg/mL Lepirudin) was obtained from five healthy donors. Plasma was diluted at 1:12 and mixed with various test substances that potentially activate or inhibit pro-FSAP. Ac–Ala–Lys–Nle–Arg–AMC (amino–methyl–coumarin) was used as a sensitive and specific substrate for FSAP.[35] Hydrolysis of the fluorogenic substrates was measured using a Synergy HI plate reader with excitation at 320 nm and emission at 460 nm at 37 °C for 60 min. The maximal velocity was calculated from the linear part of the progress curve. In limited experiments, the second-generation fluorogenic FSAP substrate (Ac–Pro–DTyr–Lys–Arg–AMC)[34] was used. Pro-uPA activation, formation of FSAP−α2-antiplasmin, and western blotting with anti-FSAP antibodies were also used to monitor pro-FSAP activation.

[3] = system: prothrombin; assay: Specificity towards pro-enzymes: prothrombin; type: biochemical; conditions: prothrombin 100 nM; peptide 0-50 μM; CS01 (Fig S7)
Experimental: Fig S7. […]
Pro-thrombin (100 nM) and thrombin (20 nM) […]
Bend, IN, USA) except plasminogen and FSAP, which were isolated in house; and pro-uPA was from Grünenthal (Stolberg, Germany). All chromogenic substrates were from Hyphen Biomed (Neuville Sur Oise, France). Experiments were carried out in TBS with Tween-20 (0.1 % wt/ vol) BSA (0.3% wt/vol) and CaCl2 (2 mM). Absorbance at 405 nm was measured over time and the enzyme activity is depicted was measured in duplicates (mean + or -range) and similar results were obtained in 3

[4] = Substrate turnover in FSAP-depleted plasma; type: biochemical, human; conditions: FSAP-depleted citrate plasma 1:12; 25 μM (Fig 6A)
Experimental: Figure 6 Pro-FSAP activation and clotting in plasma by NNKC9/41: (A) citrate plasma (1:12 dilution) from donors with WT/WT, WT/MI, and MI/MI genotypes and WT-FSAP-deficient plasma (FSAP-DP) were compared. Substrate turnover was monitored after addition of NNKC9/41 or the Ser–Ser linear peptide (25 μM each). Results are shown as mean + range of duplicate wells. (B) Pooled prothrombin-deficient citrated plasma (1:5 dilution) was recalcified with 10 mM CaCl2 and incubated with NNKC9/41 or scrambled control peptide (0–25 μM each) for 60 min at 37 °C in the presence or absence of the FSAP-inhibitory MA-FSAP-38C7 (5 μg/mL). Initiation of clotting was achieved by adding the tissue factor/phospholipid and prothrombin complex concentrate. Clotting time was measured as diluted prothrombin time (dPT) in seconds. Data are the mean of three independent experiments. The relative dPT in % of the untreated control is presented as mean ± standard error (SE) (*p <0.05, two-way analysis of variance (ANOVA) and Bonferroni post-test).
Human citrate plasma (0.38% w/v) or hirudin plasma (25 μg/mL Lepirudin) was obtained from five healthy donors. […] Hydrolysis of the fluorogenic substrates was measured using a Synergy HI plate reader with excitation at 320 nm and emission at 460 nm at 37 °C for 60 min. The maximal velocity was calculated from the linear part of the progress curve. […]

T1 sequence (Q14520 24-560): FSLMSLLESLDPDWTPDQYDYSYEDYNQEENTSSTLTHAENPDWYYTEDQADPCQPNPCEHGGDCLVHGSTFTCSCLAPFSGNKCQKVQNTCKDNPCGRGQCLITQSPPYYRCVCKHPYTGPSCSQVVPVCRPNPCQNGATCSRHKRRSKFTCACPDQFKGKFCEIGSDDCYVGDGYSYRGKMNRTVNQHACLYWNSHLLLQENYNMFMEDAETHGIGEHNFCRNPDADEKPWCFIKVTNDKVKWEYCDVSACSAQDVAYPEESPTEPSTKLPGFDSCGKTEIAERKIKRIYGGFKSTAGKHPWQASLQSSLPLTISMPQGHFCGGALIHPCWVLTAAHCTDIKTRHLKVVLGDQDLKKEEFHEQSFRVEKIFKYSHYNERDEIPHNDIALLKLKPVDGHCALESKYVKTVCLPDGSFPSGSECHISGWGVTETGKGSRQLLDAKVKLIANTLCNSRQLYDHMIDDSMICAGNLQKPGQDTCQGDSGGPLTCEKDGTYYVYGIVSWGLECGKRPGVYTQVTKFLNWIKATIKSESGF
T2 sequence (Q14520 24-560): as above

Sequence: CRGAMWMYKRC [NNKC9/41]
- effect on pro-FSAP activation ([1]; purified pro-FSAP 1.0 μg/mL, peptides 0–50 μM, histones 0–50 μg/mL, S-2288 (200 μM in legend b10, 250 μM in method b60), 37 °C, 405 nm, duplicate wells): able to robustly activate pro-FSAP
- Maximal activation ([1]; purified pro-FSAP, S-2288, linear synthetic peptide stored under oxidative conditions, duplicate wells, five batches): 2–2.5 fold
- selectivity for pro-FSAP activation ([1]; versus plasminogen, pro-urokinase, factor XII, prothrombin, factor X and active enzymes): very high selectivity
- inhibitory effect of citrate after recalcification ([2]; citrate plasma 1:12, recalcified, data not shown): reversed by recalcification
- effect in citrate plasma 1:12 ([2]; citrate plasma 1:12, 10 μM, 3 donors (Fig S5)): weak
- fluorogenic substrate turnover vs histones ([2]; hirudin plasma 1:12, NNKC9/41 0–25 μM, histones 0–25 μg/mL, three donors (Fig 4A)): stronger effect than histones
- pro-FSAP activation in plasma ([2]; hirudin plasma 1:12, peptides 25 μM, histones 25 μg/mL, Ac–Ala–Lys–Nle–Arg–AMC, duplicate wells (Fig 1D)): robust activation of pro-FSAP comparable to that with histones
- pro-FSAP activation in hirudin plasma ([2]; hirudin plasma, dilutions 1:2 to 1:12, 10 μM, 3 donors (Fig S5)): activated pro-FSAP in plasma
- lag time of pro-FSAP activation ([2]; plasma, compared to histones (Fig 1D)): > 15 min
- effect on activity [3]: did not influence the activity
- substrate turnover [4]: no turnover of the substrate

— publication PMC9486805, “Identification of a Phage Display-Derived Peptide Interacting with the N-Terminal Region of Factor VII Activating Protease (FSAP) Enables Characterization of Zymogen Activation” (ACS Chemical Biology, 2022)
